{"source": "paper PMC6588697", "about": "“Lugdunin amplifies innate immune responses in the skin in synergy with host- and microbiota-derived factors” (Nature Communications, 2019)", "system": "mouse skin", "experiment": "Cytokines in mouse skin culture supernatant after epicutaneous treatment", "type": "in vivo, C57BL/6 WT, MyD88-ko, 5xTLR-ko mice", "conditions": "1.5 µg lugdunin epicutaneous 24 h; for MIP-2 concentration in skin culture supernatant: Fig 2e; for IL-1α concentration in skin culture supernatant: Fig 2d", "experimental": "Fig. 2 Induction of chemokine (C-X-C motif) ligand 8/macrophage inflammatory protein-2 (CXCL8/MIP-2) by lugdunin is TLR2/MyD88-dependent. a HEK-control or HEK-TLR2 cells were treated with 2 μM lugdunin for 5 h and subsequently the CXCL8 concentration in the supernatant was analyzed by LEGENDplex^TM (BioLegend). Shown is one representative experiment of three independent experiments with two technical replicates ± s.e.m. b HEK-control or HEK-TLR2 cells were treated with increasing concentrations of lugdunin for 5 h and subsequently expression of CXCL8 was analyzed and normalized to actin. Shown is one representative experiment of three independent experiments with two technical replicates ± s.e.m. c Schematic overview of the mouse experiments: 6–8-week-old female C5BL/6 WT, MyD88-knockout (ko), or 5xTLR-ko mice were epicutaneously treated with 1.5 µg lugdunin or phosphate-buffered saline (PBS) as a control. After 24 h, mice were euthanized, 4 mm skin punches were taken, and further cultured in vitro for 10 h followed by cytokine analysis of the culture supernatant by LEGENDplex^TM (BioLegend). d, e Shown are the mean concentrations of IL-1α (d) or MIP-2 (e) in the skin culture supernatant of two skin punches from four mice each ± s.e.m. Significant differences to control treatments were analyzed by an unpaired two-tailed t test (*P < 0.05; **P < 0.01; ***P < 0.001). f Representative MIP-2-stained paraffin-embedded mouse skin sections. Scale bar, 100 µM. Source data are provided as a Source Data file\nFor cytokine analysis from cell cultures, 10 µL of supernatant was used for cytokine analysis via the LEGENDplex^TM human inflammation panel (BioLegend). For cytokine analysis from mouse skin, 4 mm skin punches were cultured in an airlift system where only the dermis had access to medium for 10 h. Skin punches were cultured in RPMI containing 1% FCS (Biochrom/Merck Millipore), 1% penicillin and streptomycin (Gibco/Life Technologies) and 0.25 µg/mL amphotericin B (CELLnTEC). Ten microliters of a 3-fold dilution of culture supernatant was used for cytokine analysis via the LEGENDplex^TM mouse inflammation panel (BioLegend). Samples were acquired in duplicates using a BD LSRII flow cytometer (BD Biosciences) and LEGENDplex^TM Software (BioLegend).\nFor IL-1α analysis, 100 µL of cell culture supernatant was analyzed via ELISA (R&D Systems) according to manufacturer’s instruction. For MIP-2 analysis, 100 µL of a 5-fold dilution from skin cultures supernatant was used and analyzed via ELISA (R&D Systems) according to the manufacturer’s instruction. For LL-37 ELISA, ELISA plates (Nunc) were coated overnight at 4 °C with 100 µL of cell culture supernatant or 2-fold dilutions of LL-37 starting from 8 µg/mL. The next day, the plate was washed three times using PBS + 0.5% BSA + 0.05% Triton X-100, followed by incubation with 100 µL primary antibody against hCAP18/LL-37 (HycultBiotech, Cat#HM2071, 1:120 in PBS + 0.5% BSA + 0.05% Triton X-100) at 37 °C for 1 h. After washing, incubation with 100 µL secondary antibody (Cell Signaling, Cat#7076S, 1:3000 in PBS + 0.5% BSA + 0.05% Triton X-100) followed at 37 °C for 1 h. Subsequently, plates were washed and 100 µL TMB substrate solution (Cell Signaling) was added. Reaction was stopped with 50 µL 2 N H2SO4 and absorbance at 450 nm was measured using a Fluoroskan II (Labsystems).\nTo analyze the immune cell composition and cytokines in the skin, 15 µL containing 1.5 μg lugdunin or PBS as a control were epicutaneously applied for 24 h on the shaved back skin of C57BL/6 WT/MYD88-ko/5xTLR-ko mice. After 24 h, mice were euthanized and relevant skin areas or 4 mm skin punches were removed for immune cell analysis and LEGENDplex^TM (BioLegend) cytokine analysis. […]\n55 c: Shown are the mean concentrations of the indicated cytokines in the supernatant of\n56 the organ skin culture of two skin punches from four mice each +/- s.e.m. […]\n61 Source data are provided as a Source Data file.", "key": {"[1]": {"conditions": "5xTLR-ko mice, punches cultured 10 h, single punches"}, "[2]": {"conditions": "MyD88-ko mice, punches cultured 10 h, single punches"}}}
{"substance": "Lugdunin", "values": [{"measurement": "MIP-2 concentration in skin culture supernatant", "setting": "[1]", "value": "reduced"}, {"measurement": "IL-1α concentration in skin culture supernatant", "setting": "[1]", "value": "still able to induce"}, {"measurement": "MIP-2 concentration in skin culture supernatant", "setting": "[2]", "value": "completely impaired"}, {"measurement": "IL-1α concentration in skin culture supernatant", "setting": "[2]", "value": "still able to induce"}, {"measurement": "MIP-2 concentration in skin culture supernatant", "setting": "WT mice, punches cultured 10 h, single punches", "value": "induced"}, {"measurement": "IL-1α concentration in skin culture supernatant", "setting": "WT mice, skin punches cultured 10 h, single punches (rows)", "value": "induced"}]}
